Test results: ChEMBL document CHEMBL3885861, “Open TG-GATES”

Species: Rattus norvegicus
Test: Open TG-GATES - Regimen: Daily Repeat
Type: toxicity, organism-based, Sprague-Dawley
Design: regimen Daily Repeat, gender Male, age 6 weeks
Settings: in vivo, po, 100 mg/kg, […], route gavage, dose level Middle; for KIDNEY_L / KIDNEY_R / KIDNEY_TOTAL: tissue Kidney; for LIVER: tissue Liver; for A/G / ALP / ALT / AST / BUN / CRE / Ca / Cl / DBIL / GLC / IP / K / LDH / Na / PL / RALB / TBIL / TC / TG / TP / gamma-GTP: tissue Plasma

CC[C@H]1[C@@H]2C[C@H]3[C@@H]4N(C)c5ccccc5[C@]45C[C@@H]([C@@H]2[C@H]5O)N3[C@@H]1O [AJMALINE]
Lym (tissue Blood, time 28 day): 83% | MCH (tissue Blood, time 28 day): 19.2 pg | MCHC (tissue Blood, time 28 day): 33.4% | MCV (tissue Blood, time 28 day): 57.5 fL | Mono (tissue Blood, time 28 day): 4.8% | Neu (tissue Blood, time 28 day): 11.2% | PT (tissue Blood, time 28 day): 11.5 s | Plat (tissue Blood, time 28 day): 123.8 x10_4/uL | RBC (tissue Blood, time 28 day): 795 x10_4/ul | Ret (tissue Blood, time 28 day): 2.1% | WBC (tissue Blood, time 28 day): 123.3 x10_2/uL | KIDNEY_L (time 7 day): 1 g | KIDNEY_R (time 7 day): 1.1 g | KIDNEY_TOTAL (time 7 day): 2.1 g | KIDNEY_L (time 14 day): 1.2 g | KIDNEY_R (time 14 day): 1.2 g | KIDNEY_TOTAL (time 14 day): 2.3 g | KIDNEY_L (time 28 day): 1.3 g | KIDNEY_R (time 28 day): 1.3 g | KIDNEY_TOTAL (time 28 day): 2.6 g | LIVER (time 7 day): 12.2 g | LIVER (time 14 day): 13.4 g | LIVER (time 28 day): 14.6 g | A/G (time 7 day): 2 | ALP (time 7 day): 770 IU/L | ALT (time 7 day): 32.8 IU/L | AST (time 7 day): 61.4 IU/L | BUN (time 7 day): 18 mg/dL | CRE (time 7 day): 0.5 mg/dL | Ca (time 7 day): 11.6 mg/dL | Cl (time 7 day): 103.8 meq/L | DBIL (time 7 day): 0.012 mg/dL | GLC (time 7 day): 219.2 mg/dL | IP (time 7 day): 8.7 mg/dL | K (time 7 day): 4.7 meq/L | LDH (time 7 day): 106.8 IU/L | Na (time 7 day): 142.8 meq/L | PL (time 7 day): 154.4 mg/dL | RALB (time 7 day): 3.8 g/dL | TBIL (time 7 day): 0.3 mg/dL | TC (time 7 day): 80 mg/dL | TG (time 7 day): 94.6 mg/dL | TP (time 7 day): 5.7 g/dL | gamma-GTP (time 7 day): 1.4 IU/L | A/G (time 14 day): 1.9 | ALP (time 14 day): 802.8 IU/L | ALT (time 14 day): 31.8 IU/L | AST (time 14 day): 65.6 IU/L | BUN (time 14 day): 19.4 mg/dL | CRE (time 14 day): 0.6 mg/dL | Ca (time 14 day): 11 mg/dL | Cl (time 14 day): 104 meq/L | DBIL (time 14 day): 0.012 mg/dL | GLC (time 14 day): 207 mg/dL | IP (time 14 day): 7.6 mg/dL | K (time 14 day): 4.7 meq/L | LDH (time 14 day): 116.4 IU/L | Na (time 14 day): 140.6 meq/L | PL (time 14 day): 153.2 mg/dL | RALB (time 14 day): 3.7 g/dL | TBIL (time 14 day): 0.4 mg/dL | TC (time 14 day): 77 mg/dL | TG (time 14 day): 109.6 mg/dL | TP (time 14 day): 5.7 g/dL | gamma-GTP (time 14 day): 1.2 IU/L | A/G (time 28 day): 1.8 | ALP (time 28 day): 699.2 IU/L | ALT (time 28 day): 33.4 IU/L | AST (time 28 day): 59.8 IU/L | BUN (time 28 day): 17.8 mg/dL | CRE (time 28 day): 0.6 mg/dL | Ca (time 28 day): 10.2 mg/dL | Cl (time 28 day): 104.4 meq/L | DBIL (time 28 day): 0.036 mg/dL | GLC (time 28 day): 189.8 mg/dL | IP (time 28 day): 6.6 mg/dL | K (time 28 day): 4.5 meq/L | LDH (time 28 day): 87.6 IU/L | Na (time 28 day): 141.2 meq/L | PL (time 28 day): 131.6 mg/dL | RALB (time 28 day): 3.9 g/dL | TBIL (time 28 day): 0.3 mg/dL | TC (time 28 day): 60.6 mg/dL | TG (time 28 day): 108.4 mg/dL | TP (time 28 day): 6 g/dL | gamma-GTP (time 28 day): 1.6 IU/L
